Reference: article PMC9963587 (Molecules, 2023)
“Also recorded” adds a separate entry of the source. Where two headings read alike, the source gives them in different places.

Assays:
[1] = system: LASVpv (LASV pseudotyped virus bearing LASV GPC, Josiah strain); experiment: microbe, parasite or virus in culture; format: cell-based, Lassa virus
in vitro = settings: human
LASV GP2 = LASV GP2 (Lassa virus, UniProt P08669); experiment: biochemical; format: binding; settings: for kon: read-out: ka
[2] = system: VSV pseudotyped lentivirus (VSVpv); format: cell-based, vesicular stomatitis virus
[3] = Mammarenavirus lassaense, HEK293, 48 h

LASV GP2, sequence (P08669 260-491 limits assumed): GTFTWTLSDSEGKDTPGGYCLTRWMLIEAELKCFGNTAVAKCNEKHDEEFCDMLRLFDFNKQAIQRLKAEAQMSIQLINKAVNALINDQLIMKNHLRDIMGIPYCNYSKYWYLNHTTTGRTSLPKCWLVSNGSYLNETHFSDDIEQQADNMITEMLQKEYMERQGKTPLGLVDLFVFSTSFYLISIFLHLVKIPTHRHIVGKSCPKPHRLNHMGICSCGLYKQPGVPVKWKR

| Compound | IC50 [1, 3] [nM] | CC50 (in vitro) [nM] | melting point [°C] | Kd (LASV GP2) [nM] | kd (LASV GP2) [s⁻¹] | kon (LASV GP2) [M⁻¹ s⁻¹] | IC50 [1] [nM] | inhibition of LASVpv infection (EGFP expression) [1] | antiviral effect against VSVpv infection [2] | IC50 ([1]; read-out: IC50) [nM] | CC50 (HEK-293 cells) [nM] | ka (LASV GP2) [M⁻¹ s⁻¹] | Kd (LASV GP2; read-out: KD) [nM] |
| --- | --- | --- | --- | --- | --- | --- | --- | --- | --- | --- | --- | --- | --- |
| CC(C)Oc1ccc(-n2cnc3cc(/C=C/c4ccc(C(C)(C)C)cc4)ccc32)cc1 [Compound 7a−E, (E)-5-(4-(tert-butyl)styryl)-1-(4-isopropoxyphenyl)-1H-benzo[d]imidazole] | > 50 | > 100000 | 161 to 162 | – | – | – | – | – | – | – | – | – | – |
| CC(C)Oc1ccc(-n2cnc3cc(/C=C\c4ccc(C(C)(C)C)cc4)ccc32)cc1 [Compound 7a−Z, (Z)-5-(4-(tert-butyl)styryl)-1-(4-isopropoxyphenyl)-1H-benzo[d]imidazole] | – | 3010 | 172 to 174 | 146 | 0.04 | 328000 | – | – | – | – | – | – | – |
| CC(C)Oc1ccc(-n2cnc3cc(/C=C/c4ccc(C#N)cc4)ccc32)cc1 [Compound 7b−E, (E)-4-(2-(1-(4-isopropoxyphenyl)-1H-benzo[d]imidazol-5-yl)vinyl) benzonitrile] | > 50 | > 100000 | 161 to 162 | – | – | – | – | – | – | – | – | – | – |
| CC(C)Oc1ccc(-n2cnc3cc(/C=C\c4ccc(C#N)cc4)ccc32)cc1 [Compound 7b−Z, (Z)-4-(2-(1-(4-isopropoxyphenyl)-1H-benzo[d]imidazol-5-yl)vinyl) benzonitrile] | > 50 | 23600 | 165 to 166 | 73400 | 0.28 | 3910 | – | – | – | – | – | – | – |
| Cc1ccc(/C=C/c2ccc3c(c2)ncn3-c2ccc(OC(C)C)cc2)cc1 [Compound 7c−E, (E)-1-(4-isopropoxyphenyl)-5-(4-methylstyryl)-1H-benzo[d]imidazole] | > 50 | > 100000 | 168 to 170 | – | – | – | – | – | – | – | – | – | – |
| Cc1ccc(/C=C\c2ccc3c(c2)ncn3-c2ccc(OC(C)C)cc2)cc1 [Compound 7c−Z, (Z)-1-(4-isopropoxyphenyl)-5-(4-methylstyryl)-1H-benzo[d]imidazole] | 36.9 | 20900 | 168 to 169 | 1180 | 0.07 | 65600 | – | – | – | – | – | – | – |
| CCOc1ccc(/C=C/c2ccc3c(c2)ncn3-c2ccc(OC(C)C)cc2)cc1 [Compound 7d−E, (E)-5-(4-ethoxystyryl)-1-(4-isopropoxyphenyl)-1H-benzo[d]imidazole] | > 50 | > 100000 | 152 to 153 | – | – | – | – | – | – | – | – | – | – |
| CCOc1ccc(/C=C\c2ccc3c(c2)ncn3-c2ccc(OC(C)C)cc2)cc1 [Compound 7d−Z, (Z)-5-(4-ethoxystyryl)-1-(4-isopropoxyphenyl)-1H-benzo[d]imidazole] | ≤ 15 | 17000 | 161 to 162 | 307 | 0.02 | 86500 | 13.6 | – | – | – | – | – | – |
| CC(C)Oc1ccc(-n2cnc3cc(/C=C/c4ccc(OC(F)F)cc4)ccc32)cc1 [Compound 7e−E, (E)-5-(4-(difluoromethoxy)styryl)-1-(4-isopropoxyphenyl)-1H-benzo[d]imidazole] | > 50 | > 100000 | 173 to 174 | – | – | – | – | – | – | – | – | – | – |
| CC(C)Oc1ccc(-n2cnc3cc(/C=C\c4ccc(OC(F)F)cc4)ccc32)cc1 [Compound 7e−Z, (Z)-5-(4-(difluoromethoxy)styryl)-1-(4-isopropoxyphenyl)-1H-benzo[d]imidazole] | 34.4 | 17900 | 173 to 174 | 1980 | 0.08 | 43400 | – | – | – | – | – | – | – |
| CC(C)Oc1ccc(-n2cnc3cc(/C=C/c4ccc(OC(F)(F)F)cc4)ccc32)cc1 [Compound 7f−E, (E)-1-(4-isopropoxyphenyl)-5-(4-(trifluoromethoxy)styryl)-1H-benzo[d]imidazole] | > 50 | > 100000 | 160 to 162 | – | – | – | – | – | – | – | – | – | – |
| CC(C)Oc1ccc(-n2cnc3cc(/C=C\c4ccc(OC(F)(F)F)cc4)ccc32)cc1 [Compound 7f−Z, (Z)-1-(4-isopropoxyphenyl)-5-(4-(trifluoromethoxy)styryl)-1H-benzo[d]imidazole] | 33.9 | 9470 | 161 to 162 | 2190 | 0.03 | 15600 | – | – | – | – | – | – | – |
| CC(C)Oc1ccc(-n2cnc3cc(/C=C/c4ccc(C(F)(F)F)cc4)ccc32)cc1 [Compound 7g−E, (E)-1-(4-isopropoxyphenyl)-5-(4-(trifluoromethyl)styryl)-1H-benzo[d]imidazole] | > 50 | > 100000 | 166 to 167 | – | – | – | – | – | – | – | – | – | – |
| CC(C)Oc1ccc(-n2cnc3cc(/C=C\c4ccc(C(F)(F)F)cc4)ccc32)cc1 [Compound 7g−Z, (Z)-1-(4-isopropoxyphenyl)-5-(4-(trifluoromethyl)styryl)-1H-benzo[d]imidazole] | 29.1 | 24400 | 165 to 166 | 2700 | 0.13 | – | – | – | – | – | – | – | – |
| CC(C)Oc1ccc(-n2cnc3cc(/C=C/c4ccc5ccccc5c4)ccc32)cc1 [Compound 7h−E, (E)-1-(4-isopropoxyphenyl)-5-(2-(naphthalen-2-yl)vinyl)-1H-benzo[d]imidazole] | > 50 | > 100000 | 172 to 173 | – | – | – | – | – | – | – | – | – | – |
| CC(C)Oc1ccc(-n2cnc3cc(/C=C\c4ccc5ccccc5c4)ccc32)cc1 [Compound 7h−Z, (Z)-1-(4-isopropoxyphenyl)-5-(2-(naphthalene-2-yl)vinyl)-1H-benzo[d]imidazole] | ≤ 15 | 18900 | 170 to 171 | 129 | 0.03 | 294000 | 7.58 | – | – | – | – | – | – |
| COc1ccc(-n2cnc3cc(NCc4ccc(OC)c(O)c4)ccc32)cc1 [Compound 13a, 2-methoxy-5-(((1-(4-methoxyphenyl)-1H-benzo[d]imidazol-5-yl)amino)methyl)phenol] | 47.6 | 62600 | 182.1 to 183.3 | 2780 | 0.03 | 13200 | – | – | – | – | – | – | – |
| COc1ccc(-n2cnc3cc(NCc4ccc(O)c(OC)c4)ccc32)cc1 [Compound 13b, 2-methoxy-4-(((1-(4-methoxyphenyl)-1H-benzo[d]imidazol-5-yl)amino)methyl)phenol] | 65.8 | 87300 | 157.6 to 159 | 3930 | 0.20 | 52300 | – | – | – | – | – | – | – |
| COc1ccc(-n2cnc3cc(NCc4cc(OC)c(OC)cc4OC)ccc32)cc1 [Compound 13d, 1-(4-methoxyphenyl)-N-(2,4,5-trimethoxybenzyl)-1H-benzo[d]imidazol-5-amine] | 13.8 | 135000 | 167.8 to 169.8 | 656 | 0.03 | 56700 | – | – | – | – | – | – | – |
| COc1ccc(-n2cnc3cc(NCc4cc(OC)c(O)c(OC)c4)ccc32)cc1 [Compound 13e, 2,6-dimethoxy-4-(((1-(4-methoxyphenyl)-1H-benzo[d]imidazol-5-yl)amino)methyl)phenol] | 50.5 | 88800 | 115.7 to 118.1 | 4390 | 0.22 | 50300 | – | – | – | – | – | – | – |
| COc1ccc(-n2cnc3cc(NCc4ccc(C(C)(C)C)cc4)ccc32)cc1 [Compound 13f, N-(4-(tert-butyl)benzyl)-1-(4-methoxyphenyl)-1H-benzo[d]imidazol-5-amine] | 11.9 | 102000 | 175.8 to 176.9 | 173 | 0.03 | 178000 | – | – | – | – | – | – | – |
| COc1ccc(CNc2ccc3c(c2)ncn3-c2ccc(OC)cc2)cc1 [Compound 13g, N-(4-methoxybenzyl)-1-(4-methoxyphenyl)-1H-benzo[d]imidazol-5-amine] | 55.4 | 100000 | 128 to 129.3 | 4690 | 0.30 | 65900 | – | – | – | – | – | – | – |
| COc1ccc(-n2cnc3cc(NCc4cccc(O)c4)ccc32)cc1 [Compound 13h, 3-(((1-(4-methoxyphenyl)-1H-benzo[d]imidazol-5-yl)amino)methyl)phenol] | > 100 | 40300 | 182.9 to 184.3 | 36000 | 0.42 | 11900 | – | – | – | – | – | – | – |
| COc1ccc(-n2cnc3cc(NCc4ccc(Cl)c(Cl)c4)ccc32)cc1 [Compound 13i, N-(3,4-dichlorobenzyl)-1-(4-methoxyphenyl)-1H-benzo[d]imidazol-5-amine] | 53.1 | 81700 | 134.1 to 135.8 | 25400 | 0.49 | 19400 | – | – | – | – | – | – | – |
| COc1ccc(-n2cnc3cc(NCc4ccc(C(F)(F)F)cc4)ccc32)cc1 [Compound 13j, 1-(4-methoxyphenyl)-N-(4-(trifluoromethyl)benzyl)-1H-benzo[d]imidazol-5-amine] | 63.8 | 109000 | 198.3 to 200.5 | 5490 | 0.04 | 8530 | – | – | – | – | – | – | – |
| CC(C)Oc1ccc(-n2cnc3cc(/C=C\c4ccc(C(C)(C)O)cc4)ccc32)cc1 [LHF−535, reference compound] | 3.04 | 3680 | – | 114 | 0.03 | 304000 | – | concentration-dependent | little or no effect; also recorded: did not exhibit an antiviral effect | – | – | – | – |
| COc1ccc(-n2cnc3cc(NCc4ccc(C(C)C)cc4)ccc32)cc1 [ST−193, reference compound] | 44.5 | 56300 | – | 200 | 0.01 | 83200 | – | – | – | – | – | – | – |
| N-(2, 4-dimethoxybenzyl)-1-(4-methoxyphenyl)-1H-benzo[d]imidazol-5-amine [Compound 13c] | – | – | – | – | 0.03 | – | – | – | – | 15.5 | 74200 | 39500 | 825 |
